In publication PMC12455437, “Bispecific DNA‐Peptide Probes for Targeting Receptor Pairs on Live Cells” (Angewandte Chemie (International Ed. in English), 2025):
Where a SMILES comes first, the peptide text is derived from it. [ ]: non-standard residue; d: D form. The star is where a group is joined. Dolaproine = CO[C@@H]([C@@H]1CCCN1)[C@@H](C)C(=O)O; Dil = CC[C@H](C)[C@H](NC)[C@@H](CC(=O)O)OC; X1 = C[C@@H](N*)[C@@H](O)c1ccccc1; NMeV = CN[C@H](C(=O)O)C(C)C

Tested on: HEK‐293 cells (VEGFR2−, αvβ3−)
Assay: AlamarBlue cell viability, HEK-293
Type: cell-based
Conditions: 200 nM MMAE in free form, 10 min in PBS, 37 °C, 10% Alamar blue 6 h; HUVEC, HEK-293, HCT-116, A498 compared (Figure S44)
Text: Figure 6 Cytotoxicity of cathepsin B‐cleavable vcMMAE‐DNA‐peptide complexes LC40 and components. a) Viability of HUVECs after treatment with unlabeled DNA complex 2), vcMMAE‐template DNA 3), single‐stranded monovalent DNA‐peptide conjugates 4 and 5), heterobivalent LC40 lacking cytotoxic payload 6), both i) single‐stranded monovalent DNA‐peptide conjugates followed by ii) addition of vcMMAE‐template 7), with i) unlabeled DNA complex followed by addition of ii) both single‐stranded monovalent DNA‐peptide conjugates and subsequently iii) vcMMAE‐template 8 and 9), vcMMAE‐LC40 at varied concentrations 10–15) or with unlabeled DNA complex prior to addition of vcMMAE‐LC40 16 and 17). […] Flow cytometric analysis of HUVECs mixed with e) eGFP‐expressing HEK‐293 cells or f) anti‐EpCAM antibody‐stained HCT‐116 cells assessed by dead cell staining. […]
The collected HUVEC cells were washed twice with OptiMEM and added to 2.4 mL OptiMEM in T25 flasks.The siRNA-lipofectamine complex (600 µL) was added to 2.4 mL HUVEC cells, and the mixture was incubated at 37°C, 5% CO 2 for 4 h. […] The transfection efficiency was calculated by flow cytometry and comparing the signal of anti-integrin antibody (A488) from HUVEC cells transfected with siRNA + lipofectamine with that from the cells with mock transfection (Fig. S39). […]

CC[C@H](C)[C@@H]([C@@H](CC(=O)N1CCC[C@H]1[C@H](OC)[C@@H](C)C(=O)N[C@H](C)[C@@H](O)c1ccccc1)OC)N(C)C(=O)[C@@H](NC(=O)[C@@H](NC)C(C)C)C(C)C [MMAE, monomethyl auristatin E] (H-[NMeV]V[Dil][Dolaproine]-X1)
cytotoxic effect of MMAE in free form, comparison of cell lines: most vulnerable
